Data from PubChem BioAssay (NCI).
Where “and” joins values, the source holds several entries; their conditions need not be identical. Equal values may be shown once.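 1) Cells in 96-well plates. 2) Compound, 48 h, 5 concentrations. 3) Linear interpolation between surrounding doses. 4) Unreached endpoint = highest concentration. GI50 = concentration required for 50% inhibition of growth. Definition used: TGI = concentration required for complete inhibition of growth.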

Tests used:
Assay in all cases: NCI-60 cell line screen, 48 h
CCRF-CEM leukemia = system: CCRF-CEM leukemia
COLO 205 colon = system: COLO 205 colon
HL-60(TB) leukemia = system: HL-60(TB) leukemia
IGROV1 ovarian = system: IGROV1 ovarian
NCI-H226 lung = system: NCI-H226 lung
SK-OV-3 ovarian = system: SK-OV-3 ovarian
UACC-257 melanoma = system: UACC-257 melanoma
UO-31 renal = system: UO-31 renal
HS 578T breast = system: HS 578T breast
NCI/ADR-RES ovarian = system: NCI/ADR-RES ovarian

Row | Structure (SMILES) | TGI (CCRF-CEM leukemia) | TGI (COLO 205 colon) | GI50 (HL-60(TB) leukemia) | TGI (HL-60(TB) leukemia) | GI50 (IGROV1 ovarian) | TGI (IGROV1 ovarian) | TGI (NCI-H226 lung) | GI50 (SK-OV-3 ovarian) | TGI (SK-OV-3 ovarian) | GI50 (UACC-257 melanoma) | TGI (UACC-257 melanoma) | GI50 (UO-31 renal) | TGI (UO-31 renal) | TGI (HS 578T breast) | GI50 (CCRF-CEM leukemia) | GI50 (COLO 205 colon) | GI50 (HS 578T breast) | GI50 (NCI-H226 lung) | GI50 (NCI/ADR-RES ovarian) | TGI (NCI/ADR-RES ovarian)
1 | C[C@@]12CCCc3coc(c31)C(=O)c1cc3c(cc12)C(=O)C=CC3=O | 7.74 µM | > 1 µM | > 1 µM | > 100 µM | > 1 µM | > 1 µM and 37.1 µM | > 1 µM | > 100 µM | > 100 µM | > 1 µM | > 1 µM and 29.9 µM | > 1 µM | > 1 µM and 29.7 µM |  |  |  |  |  |  | 
2 | COc1ccc2[nH]c3c4c(ccc3c2c1)C(=O)C=CC4=O | 6.55 µM | 15.6 µM |  | 1.11 µM |  | 26.4 µM | 49.9 µM |  | > 100 µM |  | 27.7 µM |  | 28.2 µM | 71.5 µM |  |  |  |  |  | 
3 | CN1NC(=Nc2ccccc2)Sc2c1cnn(-c1ccccc1)c2=O | > 100 µM | > 100 µM |  | > 100 µM |  | > 100 µM |  |  | > 100 µM |  | > 100 µM |  | > 100 µM |  |  |  |  |  |  | 
4 | C=CCNC(=O)N(CCC)CCCCC(NC(C)=O)C(=O)NCc1ccccc1 (stereo not given) | > 100 µM | > 100 µM |  | > 100 µM |  | > 100 µM | > 100 µM |  | > 100 µM |  | > 100 µM |  | > 100 µM |  |  |  |  |  |  | 
5 | COC(=O)CCC(=O)CC1CC(=O)C2CCCN12 (stereo not given) | > 100 µM | > 100 µM |  | > 100 µM |  | > 100 µM | > 100 µM |  | > 100 µM |  | > 100 µM |  | > 100 µM |  |  |  |  |  |  | 
6 | COc1cc2cccc(N=Cc3cccc(OC)c3OC(C)C)c2cc1OC | > 100 µM | > 100 µM |  |  |  | 70.2 µM |  |  | 73 µM |  | 52.4 µM |  | > 100 µM |  |  |  |  |  |  | 
7 | C[C@]12CC[C@@H]3c4ccc(O)cc4CC[C@H]3[C@@H]1CC[C@@H]2NS(=O)(=O)c1cccc(F)c1 | 18.6 µM | 3.61 µM |  |  | 5.42 µM | 21.8 µM | 16.7 µM | 6.12 µM | 18.2 µM | 4.07 µM | 16.3 µM | 2.04 µM | 10.3 µM | 19.1 µM | 3.28 µM | 1.85 µM | 3.88 µM | 3.72 µM | 2.88 µM | 17 µM
8 | N=C(N)SCc1cccc(-c2nc3ccccc3c(=O)o2)c1 |  | > 100 µM |  |  |  | > 100 µM | > 100 µM |  | > 100 µM |  | > 100 µM |  | > 100 µM | > 100 µM |  |  |  |  |  | > 100 µM
9 | C=C1C(=O)O[C@H]2/C=C(/C)C3=CC(=O)[C@@](C)(C[C@@H](OC(=O)/C(C)=C\C)C12)O3 (stereo not given in full) |  |  |  |  |  | 4.97 µM | 11.1 µM |  | 26 µM |  | 5.69 µM |  | 3.56 µM | 57.1 µM |  |  |  |  |  | 
10 | CC(C)CCCC(C)[C@H]1CCC2[C@H]3C(CC[C@@]21C)[C@@]1(C)CCC=C[C@]12C[C@@H]2[C@@H]3O (stereo not given in full) | > 100 µM | > 100 µM |  | > 100 µM |  | > 100 µM | > 100 µM |  | > 100 µM |  | > 100 µM |  | > 100 µM |  |  |  |  |  |  | 
11 | C1C[OH+]CCNCC[OH+]CC[OH+]CCN1.[Cl-].[Pt+4] | > 100 µM | > 100 µM | > 100 µM | > 100 µM | > 100 µM | > 100 µM | > 100 µM | > 100 µM | > 100 µM | > 100 µM | > 100 µM | > 100 µM | > 100 µM |  | 51.4 µM | > 100 µM |  | > 100 µM |  | 
12 | O=C1c2ccc3c4ccccc4n(Cc4ccccc4)c3c2C(=O)N1c1ccccc1 | 3.68 µM | 11.1 µM |  | > 44.7 µM |  | 35.7 µM | 29.7 µM |  | > 55.6 µM |  | 29.9 µM |  | 30.1 µM |  |  |  |  |  |  | 
13 | Nc1nc(CCl)nc(Nc2ccccc2)n1 | 4.58 µM | 43.4 µM |  | 11.2 µM |  | 36.1 µM | 43.3 µM |  |  |  | 71.9 µM |  | 67.3 µM |  |  |  |  |  |  | 
14 | COC(=O)/C(C#N)=C1\CCC(O)N1 (stereo not given) | > 100 µM | > 100 µM |  | > 100 µM |  | > 100 µM | > 100 µM |  | > 100 µM |  | > 100 µM |  | > 100 µM |  |  |  |  |  |  | 
15 | CC(C)N=c1cc2n(-c3ccc(Cl)cc3)c3ccccc3nc-2cc1Nc1ccc(Cl)cc1 | > 100 µM | 4.21 µM and 5.03 µM | 1.04 µM | 2.46 µM | 0.586 µM and 0.296 µM | > 50 µM | > 50 µM | 2.15 µM | > 50 µM | 2.58 µM | > 50 µM |  |  |  | 0.75 µM and 2.49 µM | 1.17 µM and 1.41 µM |  | 1.43 µM | 2.3 µM | > 100 µM
16 | CC(=O)c1sc(-c2nc(C)c(C(=O)/C=C\c3ccc(/C=C\C(=O)c4sc(-c5nc(C)c(C(C)=O)s5)nc4C)cc3)s2)nc1C | > 100 µM | > 100 µM |  | > 100 µM |  | > 100 µM | > 100 µM |  | > 100 µM |  | > 100 µM |  | > 100 µM |  |  |  |  |  |  | 
17 | Cc1cc(NS(=O)(=O)c2ccc(Nc3c4ccccc4nc4c(C(=O)NCCN(C)C)cccc34)cc2)no1 | 11.1 µM | > 100 µM |  | 0.472 µM |  | 22.1 µM | 2.92 µM |  |  |  |  |  |  |  |  |  |  |  |  | 
18 | CC(=O)/C=C/c1ccc(C#Cc2ccccc2)s1 | 47.6 µM | 31 µM |  |  | 18.3 µM | 32.2 µM | 36.4 µM | 17.3 µM | 31.1 µM | 19.1 µM | 34.3 µM | 14.3 µM | 27.3 µM | 56.3 µM | 22.2 µM | 16.9 µM | 23.9 µM | 18.4 µM | 15.8 µM | 33.9 µM
19 | COc1cccc(/C(COc2ccc3c(c2)oc(=O)c2cc(OC)ccc23)=N/O)c1 | > 100 µM | > 100 µM |  |  | 3.8 µM | > 100 µM | > 100 µM | 66.1 µM | > 100 µM | 34.8 µM | > 100 µM | 7.11 µM | 75.6 µM | > 100 µM | 11.4 µM | 4.25 µM | 14.5 µM | 51.9 µM | 3.63 µM | > 100 µM
